Laboratory results: patent publication US5888475A, “Labeled cocaine analogs” (Emory University, priority 1997, dated 1999)
Where two headings read alike, the source gives them in different places.

What was measured:
dopamine transporter = target: T1, dopamine transporter (Rattus norvegicus, UniProt P23977); assay: In vitro binding: displacement of [3H]WIN 35,428 in rat striatal homogenate; settings: displacement of [3H]WIN 35,428, rat striatal homogenate; read-out: calculated binding constant with dopamine transporter
T1 construct: in a rat striatal homogenate preparation; from tissue; host or cells: rat striatum (homogenate)
Description: (§1) In vivo distribution of a compound of the invention, [^18 F]-2β-carbo-2'-fluoroisopropoxy-3β-(4-iodophenyl)tropane (FIPIT) 8 (X=4-iodophenyl; Y=1'fluoro-isopropoxy) was measured, as well as brain PET imaging to determine suitability of the compound as a label. Also, in vitro binding studies were conducted, measuring the ability of FIPIT to displace [^3 H]WIN 35,428 (III) in a rat striatal homogenate preparation. These studies provided a calculated binding constant for FIPIT 8 with dopamine transporter of 1.13 nM. […] Region of interest measurements determined striatal to cerebellum ratios to be 3.0 at 190 min post administration. In the in vivo distribution studies, the distribution of radioactivity was expressed as percent dose per gram in tissues of unfasted male Sprague Dawley rats at 2 min, 30 min, 60 min and 120 min after intravenous administration of [^18 F] FIPIT 8. The results are shown in Table I. The initial level of accumulation of radioactivity in the striatum, a region rich in dopamine transporters, after injection of [^18 F] FIPIT 8 was high, 0.84% of injected dose/gram at 2 min, and decreased slowly to 0.50% of injected dose/gram at 120 min. […] However, the amount of radioactivity in the cerebellum and cortex at 120 min decreased to only 0.14% dose/gram and 0.26% dose/gram respectively resulting in a striatum to cerebellum ratio of 3.71 and a striatum to cortex ratio of 2.0.

[1] = Brain PET imaging with [18F]-FIPIT in a rhesus monkey; assay type: in vivo
Description: as §1

[2] = In vivo tissue distribution of radioactivity after intravenous administration; parameters: species or system Sprague Dawley rats; settings: rat, i.v.; for tissue uptake at 2 min / tissue uptake at 0.5 h / tissue uptake at 1 h / tissue uptake at 2 h: iv
Description: as §1

T1 sequence (P23977 whole entry): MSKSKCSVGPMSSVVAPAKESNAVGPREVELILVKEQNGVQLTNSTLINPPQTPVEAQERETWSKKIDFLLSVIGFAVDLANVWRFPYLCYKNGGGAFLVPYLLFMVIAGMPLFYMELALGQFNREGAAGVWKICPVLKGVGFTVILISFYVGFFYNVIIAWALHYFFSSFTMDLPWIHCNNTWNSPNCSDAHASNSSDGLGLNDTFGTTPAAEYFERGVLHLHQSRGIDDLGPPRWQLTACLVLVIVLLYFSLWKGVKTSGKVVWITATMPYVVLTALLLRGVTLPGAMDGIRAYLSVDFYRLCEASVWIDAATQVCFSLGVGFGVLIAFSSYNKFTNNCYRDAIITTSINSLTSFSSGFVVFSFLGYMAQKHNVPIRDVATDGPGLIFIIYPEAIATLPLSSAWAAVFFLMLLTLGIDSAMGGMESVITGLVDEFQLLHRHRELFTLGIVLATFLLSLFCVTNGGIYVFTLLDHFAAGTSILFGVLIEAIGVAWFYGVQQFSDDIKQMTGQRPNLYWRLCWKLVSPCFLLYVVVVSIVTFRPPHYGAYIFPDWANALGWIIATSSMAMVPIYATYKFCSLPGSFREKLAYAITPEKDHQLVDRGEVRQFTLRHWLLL

## CC(CF)OC(=O)[C@H]1[C@@H](c2ccc(I)cc2)C[C@@H]2CC[C@H]1N2C (stereo partly drawn) [FIPIT 8]
Dopamine transporter
  Ki: 1.13 nM

## CC(C[18F])OC(=O)[C@H]1[C@@H](c2ccc(I)cc2)C[C@@H]2CC[C@H]1N2C (stereo partly drawn) [[^18 F] FIPIT 8, Fluorine-18 labeled2β-carbo-1'-fluoroisopropoxy-3β-(4-iodophenyl)tropane]
[1]
  brain region of highest uptake (basal ganglia/striatum): region of highest uptake in the brain
[1]; 190 min following injection
  retention in basal ganglia (striatum): prolonged retention with clear visualization at 190 min
[1]; 190 min post administration
  striatal to cerebellum ratio (region of interest measurements): 3.0
[2]; blood, 2 min, read-out: Blood, Mean % Injected Dose/Gram
  tissue uptake at 2 min: 0.14 %ID/g
[2]; blood, 30 min, read-out: Blood, Mean % Injected Dose/Gram
  tissue uptake at 0.5 h: 0.03 %ID/g
[2]; blood, 60 min, read-out: Blood, Mean % Injected Dose/Gram
  tissue uptake at 1 h: 0.03 %ID/g
[2]; blood, 120 min, read-out: Blood, Mean % Injected Dose/Gram
  tissue uptake at 2 h: 0.04 %ID/g
[2]; bone, 2 min, read-out: Bone, Mean % Injected Dose/Gram
  tissue uptake at 2 min: 0.28 %ID/g
[2]; bone, 30 min, read-out: Bone, Mean % Injected Dose/Gram
  tissue uptake at 0.5 h: 0.21 %ID/g
[2]; bone, 60 min, read-out: Bone, Mean % Injected Dose/Gram
  tissue uptake at 1 h: 0.17 %ID/g
[2]; bone, 120 min, read-out: Bone, Mean % Injected Dose/Gram
  tissue uptake at 2 h: 0.25 %ID/g
[2]; brain, 2 min, read-out: Brain (B), Mean % Injected Dose/Gram
  tissue uptake at 2 min: 0.83 %ID/g
[2]; brain, 30 min, read-out: Brain (B), Mean % Injected Dose/Gram
  tissue uptake at 0.5 h: 0.53 %ID/g
[2]; brain, 60 min, read-out: Brain (B), Mean % Injected Dose/Gram
  tissue uptake at 1 h: 0.31 %ID/g
[2]; brain, 120 min, read-out: Brain (B), Mean % Injected Dose/Gram
  tissue uptake at 2 h: 0.28 %ID/g
[2]; cerebellum, 2 min, read-out: Cerebell (C), Mean % Injected Dose/Gram
  tissue uptake at 2 min: 0.76 %ID/g
[2]; cerebellum, 30 min, read-out: Cerebell (C), Mean % Injected Dose/Gram
  tissue uptake at 0.5 h: 0.3 %ID/g
[2]; cerebellum, 60 min, read-out: Cerebell (C), Mean % Injected Dose/Gram
  tissue uptake at 1 h: 0.16 %ID/g
[2]; cerebellum, 120 min, read-out: Cerebell (C), Mean % Injected Dose/Gram
  tissue uptake at 2 h: 0.14 %ID/g
[2]; cortex, 2 min, read-out: Cortex (Cx), Mean % Injected Dose/Gram
  tissue uptake at 2 min: 0.98 %ID/g
[2]; cortex, 30 min, read-out: Cortex (Cx), Mean % Injected Dose/Gram
  tissue uptake at 0.5 h: 0.53 %ID/g
[2]; cortex, 60 min, read-out: Cortex (Cx), Mean % Injected Dose/Gram
  tissue uptake at 1 h: 0.28 %ID/g
[2]; cortex, 120 min, read-out: Cortex (Cx), Mean % Injected Dose/Gram
  tissue uptake at 2 h: 0.26 %ID/g
[2]; heart, 2 min, read-out: Heart, Mean % Injected Dose/Gram
  tissue uptake at 2 min: 1.7 %ID/g
[2]; heart, 30 min, read-out: Heart, Mean % Injected Dose/Gram
  tissue uptake at 0.5 h: 0.14 %ID/g
[2]; heart, 60 min, read-out: Heart, Mean % Injected Dose/Gram
  tissue uptake at 1 h: 0.1 %ID/g
[2]; heart, 120 min, read-out: Heart, Mean % Injected Dose/Gram
  tissue uptake at 2 h: 0.12 %ID/g
[2]; kidney, 2 min, read-out: Kidney, Mean % Injected Dose/Gram
  tissue uptake at 2 min: 2.61 %ID/g
[2]; kidney, 30 min, read-out: Kidney, Mean % Injected Dose/Gram
  tissue uptake at 0.5 h: 0.85 %ID/g
[2]; kidney, 60 min, read-out: Kidney, Mean % Injected Dose/Gram
  tissue uptake at 1 h: 0.44 %ID/g
[2]; kidney, 120 min, read-out: Kidney, Mean % Injected Dose/Gram
  tissue uptake at 2 h: 0.3 %ID/g
[2]; liver, 2 min, read-out: Liver, Mean % Injected Dose/Gram
  tissue uptake at 2 min: 1.5 %ID/g
[2]; liver, 30 min, read-out: Liver, Mean % Injected Dose/Gram
  tissue uptake at 0.5 h: 3.89 %ID/g
[2]; liver, 60 min, read-out: Liver, Mean % Injected Dose/Gram
  tissue uptake at 1 h: 5.2 %ID/g
[2]; liver, 120 min, read-out: Liver, Mean % Injected Dose/Gram
  tissue uptake at 2 h: 4.46 %ID/g
[2]; lung, 2 min, read-out: Lung, Mean % Injected Dose/Gram
  tissue uptake at 2 min: 6.21 %ID/g
[2]; lung, 30 min, read-out: Lung, Mean % Injected Dose/Gram
  tissue uptake at 0.5 h: 0.61 %ID/g
[2]; lung, 60 min, read-out: Lung, Mean % Injected Dose/Gram
  tissue uptake at 1 h: 0.4 %ID/g
[2]; lung, 120 min, read-out: Lung, Mean % Injected Dose/Gram
  tissue uptake at 2 h: 0.46 %ID/g
[2]; muscle, 2 min, read-out: Muscle, Mean % Injected Dose/Gram
  tissue uptake at 2 min: 0.12 %ID/g
[2]; muscle, 30 min, read-out: Muscle, Mean % Injected Dose/Gram
  tissue uptake at 0.5 h: 0.13 %ID/g
[2]; muscle, 60 min, read-out: Muscle, Mean % Injected Dose/Gram
  tissue uptake at 1 h: 0.04 %ID/g
[2]; muscle, 120 min, read-out: Muscle, Mean % Injected Dose/Gram
  tissue uptake at 2 h: 0.08 %ID/g
[2]
  washout from brain regions other than striatum: rapid washout in all other brain regions
[2]; 2 min
  Bone, Mean % Injected Dose/Gram: 0.28 % Injected Dose/Gram
  Cerebell (C), Mean % Injected Dose/Gram: 0.76 % Injected Dose/Gram
  Cortex (Cx), Mean % Injected Dose/Gram: 0.98 % Injected Dose/Gram
  St/C (striatum to cerebellum ratio): 1.12
  St/Cx (striatum to cortex ratio): 0.86
  Striatum (St), Mean % Injected Dose/Gram: 0.84 % Injected Dose/Gram
[2]; 2 min to 120 min
  in vivo defluorination (from bone radioactivity): stability of the 2β-fluoroisopropyl group to significant in vivo defluorination
[2]; 30 min
  St/C (striatum to cerebellum ratio): 2.42
  St/Cx (striatum to cortex ratio): 1.38
[2]; 60 min
  St/C (striatum to cerebellum ratio): 3.63
  St/Cx (striatum to cortex ratio): 2.13
[2]; 120 min
  Bone, Mean % Injected Dose/Gram: 0.25 % Injected Dose/Gram
  Cerebell (C), Mean % Injected Dose/Gram: 0.14 % Injected Dose/Gram
  Cortex (Cx), Mean % Injected Dose/Gram: 0.26 % Injected Dose/Gram
  St/C (striatum to cerebellum ratio): 3.71
  St/Cx (striatum to cortex ratio): 2.0
  Striatum (St), Mean % Injected Dose/Gram: 0.50 % Injected Dose/Gram
[2]; 120 min, listed as [^18 F] FIPIT (8)
  St/Cx (striatum to cortex ratio): 2.00
[2]; spleen, 2 min, read-out: Spleen, Mean % Injected Dose/Gram
  tissue uptake at 2 min: 1.58 %ID/g
[2]; spleen, 30 min, read-out: Spleen, Mean % Injected Dose/Gram
  tissue uptake at 0.5 h: 0.64 %ID/g
[2]; spleen, 60 min, read-out: Spleen, Mean % Injected Dose/Gram
  tissue uptake at 1 h: 0.4 %ID/g
[2]; spleen, 120 min, read-out: Spleen, Mean % Injected Dose/Gram
  tissue uptake at 2 h: 0.38 %ID/g
[2]; striatum, 2 min, read-out: Striatum (St), Mean % Injected Dose/Gram
  tissue uptake at 2 min: 0.84 %ID/g
[2]; striatum, 30 min, read-out: Striatum (St), Mean % Injected Dose/Gram
  tissue uptake at 0.5 h: 0.73 %ID/g
[2]; striatum, 60 min, read-out: Striatum (St), Mean % Injected Dose/Gram
  tissue uptake at 1 h: 0.58 %ID/g
[2]; striatum, 120 min, read-out: Striatum (St), Mean % Injected Dose/Gram
  tissue uptake at 2 h: 0.5 %ID/g
[2]; testis, 2 min, read-out: Testis, Mean % Injected Dose/Gram
  tissue uptake at 2 min: 0.14 %ID/g
[2]; testis, 30 min, read-out: Testis, Mean % Injected Dose/Gram
  tissue uptake at 0.5 h: 0.68 %ID/g
[2]; testis, 60 min, read-out: Testis, Mean % Injected Dose/Gram
  tissue uptake at 1 h: 0.17 %ID/g
[2]; testis, 120 min, read-out: Testis, Mean % Injected Dose/Gram
  tissue uptake at 2 h: 0.19 %ID/g
